Experiments:
HIV-2 [1] = assay: anti-HIV-2 activity in CEM cells; assay type: cell-based
Protocol: (§6) The infected cell cultures were incubated at 37° C. for 5 days in a humidified CO2 incubator. The cytopathicity of the virus was examined by determination of MT-4 cell viability by trypan blue dye staining.

HIV-1 [2] = conditions: CEM cells
Protocol: as §6

MSV = assay: MSV-induced transformation in murine embryo fibroblast C3H/3T3 cells; assay type: cell-based; conditions: day 6 post infection
Protocol: The cells were seeded in 1-ml-wells of 48-well plates and exposed to 80 PFU (plaque forming units) for 60-90 min. The virus was subsequently removed and culture medium containing appropriate concentrations of the tested compounds was added (1 ml per well). At day 6-post infection, MSV-induced transformation of the cell culture was examined microscopically. The results are summarised in Table 9 in comparison with the data on the prototype compounds.

HIV-2 [3] = assay: HIV-2-induced cytopathicity in MT-4 cells; assay type: cell-based; conditions: for HIV-2 MT-4 IC50: MT-4 cells, 5 days
Protocol: as §6

HIV-1 [4] = conditions: for HIV-1 MT-4 IC50: MT-4 cells, 5 days
Protocol: as §6

DNA synthesis = DNA synthesis in Xenopus egg extracts ([α-32P]dATP incorporation); assay type: biochemical; conditions: [α-32P]dATP incorporation after 3 h; read-out: Inhibition of DNA synthesis IC50
Protocol: (§1) Metaphase-arrested Xenopus egg extracts were prepared as described previously by Blow “J. Cell Biol.” 1993, 122:993 and stored in liquid nitrogen. Demembranated Xenopus sperm nuclei were prepared as described by Blow & Laskey “Cell” 1986;47:577.
(§2) At concentrations of cdk inhibitors (see Table 6) ranging from 0.1-2 μM, chromosomes remained highly condensed and no nuclear envelope was visible. At 4-6 μM and higher concentrations, interphase nuclei appeared with partially decondensed chromatin and an intact nuclear envelope. […] For the inhibition effect to become detectable, the first 15-min incubation of the interphase extract is probably sufficient.

normal human lymphocytes = assay: concanavalin A induced lymphocyte proliferation, [3H]-TdR incorporation; assay type: cell-based; conditions: 72 hours, read-out: ED50 (the source's name)
Protocol: Human heparinized peripheral blood was obtained from healthy volunteers by cubital vein punction. The blood was diluted in PBS (1:3) and mononuclear cells were separated by centrifugation in Ficoll-Hypaque density gradient (Pharmacia, 1.077 g/ml) at 2200 rpm for 30 minutes. Following centrifugation, lymphocytes were washed in PBS and resuspended in cell culture medium (RMPI 1640, 2 mM glutamine, 100 U/ml penicillin, 100 μg/ml streptomycin, 10% fetal calf serum and sodium bicarbonate).
The cells were diluted at target density of 1100000 cells/ml and were added by pipette (180 μl) into 96/well microtiter plates. Four-fold dilutions of the intended test concentration were added at time zero in 20 μl aliquots to the microtiter plate wells. Usually, test compound was evaluated at six 4-fold dilutions. In routine testing, the highest well concentration was 266.7 μM. All drug concentrations were examined in duplicates. All wells with exception of unstimulated controls were activated with 50 μl of concanavalin A (25 μg/ml). Incubations of cells with test compounds lasted for 72 hours at 37° C., in 5% CO2 atmosphere and 100% humidity. At the end of incubation period, the cells were assayed by using the [^3H]-TdR:
Cell cultures were incubated with […] (20 μl of stock solution 500 μCi/ml) per well for 6 hours at 37° C. and 5% CO2. The automated cell harvester was used to lyse cells in water and adsorb the DNA onto glass-fiber filters in the format of microtiter plate. The DNA incorporated [^3H]-TdR was retained on the filter while unincorporated material passes through. The filters were dried at room temperature overnight, sealed into a sample bag with 10-12 ml of scintillant. The amount of [^3H]-TdR present in each filter (in cpm) was determined by scintillation counting in a Betaplate liquid scintillation counter. The effective dose of immunosuppressant (ED) was calculated using the following equation: ED=(cpmdrug exposed well/mean cpmcontrol wells)×100%. The EDs50 value, the drug concentration inhibiting proliferation of 50% of lymphocytes, was calculated from the obtained dose response curves.
To evaluate immunosuppressive activity of substituted adenines, their ability to inhibit polyclonal mitogen induced proliferation of normal human lymphocytes was analyzed (Table 8). […] Effective immunosuppressive dose of new derivatives under in vitro conditions was close to 1-20 μM.

MPF activity = assay: M-phase promoting factor inhibition in metaphase-arrested Xenopus egg extracts; assay type: biochemical; conditions: 1.5 h after addition
Protocol: as §1, §2

IκB-α = IκB-α kinase-inhibitory activity; assay type: biochemical; conditions: Table 3
Source text: Modification of 2,6,9-trisubstituted purines by a catechol-like substituent at R6 leads to an increase in cdk inhibitory activity of the tested compounds.

CDC2 = target: T1, CDC2 (Homo sapiens, UniProt P06493); assay: p34cdc2 (CDC2) kinase inhibition assay, histone H1 substrate; assay type: biochemical; conditions: Table 3
T1 construct: made in house; host or cells: Sf9 insect cells, baculovirus co-infection
T1 sequence (P06493 whole entry, species assumed): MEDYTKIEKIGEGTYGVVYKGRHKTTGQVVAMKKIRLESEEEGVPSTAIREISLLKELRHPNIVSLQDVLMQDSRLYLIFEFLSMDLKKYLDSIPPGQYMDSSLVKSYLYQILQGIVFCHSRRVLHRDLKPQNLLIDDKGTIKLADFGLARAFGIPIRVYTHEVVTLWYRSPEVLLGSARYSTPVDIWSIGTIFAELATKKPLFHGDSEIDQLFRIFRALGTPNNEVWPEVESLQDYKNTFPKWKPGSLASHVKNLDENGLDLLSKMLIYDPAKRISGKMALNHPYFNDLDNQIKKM
T1 sequence (P14635 whole entry partner, species assumed): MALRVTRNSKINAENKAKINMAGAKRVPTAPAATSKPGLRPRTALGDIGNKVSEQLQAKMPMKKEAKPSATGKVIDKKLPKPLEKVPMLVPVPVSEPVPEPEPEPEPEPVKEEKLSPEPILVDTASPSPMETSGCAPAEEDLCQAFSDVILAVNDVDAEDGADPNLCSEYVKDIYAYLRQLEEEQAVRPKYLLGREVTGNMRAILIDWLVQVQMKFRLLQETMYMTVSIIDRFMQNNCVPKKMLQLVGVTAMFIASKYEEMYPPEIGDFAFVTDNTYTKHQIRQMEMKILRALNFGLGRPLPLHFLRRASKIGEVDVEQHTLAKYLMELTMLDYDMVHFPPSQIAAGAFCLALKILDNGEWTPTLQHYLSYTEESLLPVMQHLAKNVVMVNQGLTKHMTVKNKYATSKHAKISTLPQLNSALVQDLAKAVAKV
Protocol: Cyclin-dependent kinases (p34^cdc2, p33^cdk2, p33^cdk4 and cyclins (cyclin B, E and DI) are produced in Sf9 insect cells coinfected with appropriate baculoviral constructs. The cells are harvested 68-72 hrs post infection in lysis buffer for 30 min on ice and the soluble fraction is recovered by centrifugation at 14.000 g for 10 min. The protein extract is stored at −80° C.
To carry out experiments on kinetics under linear conditions, the final point test system for kinase activity measurement is used. The kinase is added to the reaction mixture in such a way that linear activity is obtained with respect to the concentration of enzyme and with respect to time.
Inhibition of p33^cdk4 kinase is determined with Rb-GST (0.2 mg/ml) as the substrate. Kinase activity is determined at 30° C. in kinase buffer.
Tested compounds are usually dissolved to 100 mM solutions in DMSO, the final concentration of DMSO in reaction mixture never exceeds 1%. The controls contain suitable dilutions of DMSO. After 10 min, the addition of 3×SDS sample buffer stops the incubations. […] The measurement of kinase activity is done using digital image analysis. The kinase activity is expressed as a percentage of maximum activity, the apparent inhibition constants are determined by graphic analysis. Kinase buffer: 50 mM Hepes pH 7.4, 10 mM MgCl21 5 mM EGTA, 10 mM 2-glycerolphosphate,

[5] = test system: T-lymphoblastic leukemia cell line CEM; assay: MTT cytotoxicity assay, CEM; assay type: cell-based, human; conditions: 72 hours (TCS50 in the method)
Source text: (§3) One of the parameters used as the basis for colorimetric assays is the metabolic activity of viable cells. For example, a microtiter assay, which uses the tetrazolium salt MTT, is now widely used to quantitate cell proliferation and cytotoxicity. For instance, this assay is used in drug screening programs and in chemosensitivity testing. Because only metabolically active cells cleave tetrazolium salts, these assays detect viable cells exclusively. In the case of MTT assay, yellow soluble tetrazolium salt is reduced to coloured water-insoluble formazan salt. After it is solubilized, the formazan formed can easily and rapidly be quantified in a conventional ELISA plate reader at 570 nm (maximum absorbance). The quantity of reduced formazan corresponds to number of vital cells in the culture. Human T-lymphoblastic leukemia cell line CEM; promyelocytic HL-60 and monocytic U937 leukemias; breast carcinoma cell lines MCF-7, BT549, MDA-MB-231; glioblastoma U87MG cells; cervical carcinoma cells HELA; sarcoma cells U20S and Saos2; hepatocellular carcinoma HepG2; mouse immortalized bone marrow macrophages B2.4 and B10A.4; P388D1 and L1210 leukemia; B16 and B16F10 melanomas were used for routine screening of the compounds according to the invention. The cells were maintained in Nunc/Corning 80 cm^2 plastic tissue culture flasks and cultured in cell culture medium (DMEM with 5 g/l glucose, 2 mM glutamine, 100 U/ml penicillin, 100 μg/ml streptomycin, 10% fetal calf serum and sodium bicarbonate).
(§4) The cell suspensions that were prepared and diluted according to the particular cell type and the, expected target cell density (2500-30000 cells per well based on cell growth characteristics) were added by pipette (80 μl) into 96-well microtiter plates. Inoculates were allowed a pre-incubation period of 24 hours at 37° C. and 5% CO2 for stabilisation. Four-fold dilutions of the intended test concentration were added at time zero in 20 μl aliquots to the microtiter plate wells. Usually, test compound was evaluated at six 4-fold dilutions. In routine testing, the highest well concentration was 266.7 μM, but it can be the matter of change dependent on the agent. All drug concentrations were examined in duplicates. Incubations of cells with the test compounds lasted for 72 hours at 37° C., in 5% CO2 atmosphere and 100% humidity. At the end of incubation period, the cells were assayed by using the MTT. Ten microliters of the MTT stock solution were pipetted into each well and incubated further for 1-4 hours. After this incubation period, formazan was solubilized by addition of 100 μl/well of 10% SDS in water (pH=5.5) followed by further incubation at 37° C. overnight. The optical density (OD) was measured at 540 nm with the Labsystem iEMS Reader MF (UK). The tumour cell survival (TCS) was calculated using the following equation: TCS=(ODdrug exposed well/mean ODcontrol wells)×100%. The TCS50 value, the drug concentration lethal to 50% of the tumour cells, was calculated from the obtained dose response curves.
(§5) The cytoxicity of novel compounds was tested on panel of cell lines of different histogenetic and species origin (Table 7). Equal activities were found in all tumour cell lines tested. […] Importantly, this observation distinguishes the purine derivatives of the invention from flavopiridol and related compounds, as their biological activity is dependent on p53 status.

B16 melanoma = assay: MTT cytotoxicity assay, B16; assay type: cell-based, mouse; conditions: 72 hours (TCS50 in the method)
Source text: as §3, §4, §5

the cells = conditions: at 100 μg/ml
retroviruses = assay: anti-retroviral activity in vitro; assay type: cell-based
Protocol: as §6

Nc1nc(NCc2ccc(O)c(O)c2)c2ncn(CCOCP(=O)(O)O)c2n1
HIV-2 CEM IC50 (HIV-2 [1]): >20 mg/L
HIV-1 CEM IC50 (HIV-1 [2]): >20 mg/L

CN(CCc1ccc(O)c(O)c1)c1nc(N)nc2c1ncn2CCOCP(=O)(O)O
HIV-2 CEM IC50 (HIV-2 [1]): >20 mg/L
MSV IC50 (MSV): 0.9 mg/L
HIV-2 MT-4 IC50 (HIV-2 [3]): 32 mg/L
HIV-1 CEM IC50 (HIV-1 [2]): >20 mg/L

CC(Cn1cnc2c(NCc3ccc(O)c(O)c3)nc(N)nc21)OCP(=O)(O)O (centres unmarked)
HIV-1 MT-4 IC50 (HIV-1 [4]): 3.2 mg/L
HIV-2 CEM IC50 (HIV-2 [1]): 8.3 mg/L

CC(Cn1cnc2c(N(C)CCc3ccc(O)c(O)c3)nc(N)nc21)OCP(=O)(O)O (centres unmarked)
HIV-2 CEM IC50 (HIV-2 [1]): 7.8 mg/L
HIV-2 MT-4 IC50 (HIV-2 [3]): 3.2 mg/L

CC(Cn1cnc2c(NC(CO)c3ccccc3)nc(N)nc21)OCP(=O)(O)O (centres unmarked)
HIV-1 MT-4 IC50 (HIV-1 [4]): 10.1 mg/L
HIV-2 CEM IC50 (HIV-2 [1]): >20 mg/L
HIV-1 CEM IC50 (HIV-1 [2]): >20 mg/L

CC[C@H](CO)Nc1nc(N(C)CCc2ccc(O)c(O)c2)c2ncn(C(C)C)c2n1
IC50 (DNA synthesis): 1.3 µM
EC50 (normal human lymphocytes): 1.5 µM
IC50 (MPF activity): 1.12 µM
IC50 (IκB-α): 3.2 µM
IC50 (CDC2): 0.95 µM
IC50 [5]: 6 µM
IC50 (B16 melanoma): 6 µM

Nc1nc(NC(CO)c2ccccc2)c2ncn(CCOCP(=O)(O)O)c2n1 (racemic)
HIV-2 CEM IC50 (HIV-2 [1]): >20 mg/L
HIV-1 CEM IC50 (HIV-1 [2]): >20 mg/L

C[C@H](Cn1cnc2c(N)nc(N)nc21)OCP(=O)(O)O [(R)-PMPD]
selectivity index (ratio cytotoxic dose/antivirally active dose) (HIV-1 [4]; HIV-1): higher than 2000
toxicity to the cells (the cells): not toxic
EC50 retrovirus replication (retroviruses): 0.01 to 0.1 mg/L
selectivity index (ratio cytotoxic dose/antivirally active dose) (HIV-2 [3]; HIV-2): higher than 2000
